Experimental data taken from patent US8703172B2, “Sphingolipids for improvement of the composition of the intestinal flora” (Nederlandse Organizatie voor …, priority 2003, dated 2014).
≈ marks a conversion by molar mass, not a printed value. Entries after “also recorded” stand apart in the source; their conditions may differ. Read-outs that look alike come from different tables or passages of the source.

Key:
[1] = tested on: Streptococcus suis type 2; assay: MIC on agar plates (TSA); conditions: for MIC, S. suis type 2: TSA agar plate, aerobic, 48 hours at 30° C.; for MIC: Streptococcus suis, TYPE2, 48 h, read-out: MIC, S. suis type 2
Lactobacillus sake = assay: MIC on agar plates (MRSA); conditions: for MIC, L. sake: anaerobic, 72 hours at 30° C.; for MIC: Latilactobacillus sakei, 72 h, read-out: MIC, L. sake
Bacteroides fragilis = assay: MIC on agar plates (RCBA); assay type: cell-based; conditions: RCBA agar plate, anaerobic, 72 hours at 30° C.; for MIC: Bacteroides fragilis, read-out: MIC, B. fragilis
Clostridium spp. = assay: MIC on agar plates (RCBA); assay type: cell-based; conditions: for MIC: Clostridium, 72 h, read-out: MIC, C. spp.
[2] = tested on: Bifidobacterium adolescentis; assay: MIC on agar plates (RCBA); assay type: cell-based; conditions: RCBA agar plate, anaerobic, 72 hours at 30° C.; for MIC: Bifidobacterium adolescentis, read-out: MIC, B. adolescentis
Lactobacillus casei = assay: MIC on agar plates (MRSA); conditions: for MIC, L. casei: MRSA agar plate, anaerobic, 72 hours at 30° C.; for MIC: Lacticaseibacillus casei, 72 h, read-out: MIC, L. casei
Pseudomonas aeruginosa = assay: MIC on agar plates (TSA); assay type: cell-based; conditions: TSA agar plate, aerobic, 48 hours at 30° C.; for MIC: Pseudomonas aeruginosa, read-out: MIC, P. aeruginosa
Bacillus cereus = assay: MIC on agar plates (TSA); conditions: for MIC, B. cereus: TSA agar plate, aerobic, 48 hours at 30° C.; for MIC: Bacillus cereus, 48 h, read-out: MIC, B. cereus
Leuconostoc carnosum = assay: MIC on agar plates (MRSA); conditions: for MIC, L. carnosum: agar plate, anaerobic, 72 hours at 30° C.; for MIC: 72 h, read-out: MIC, L. carnosum
Gram-positive bacteria = assay: Antimicrobial activity on agar plates, summary for Gram-positive bacteria; assay type: cell-based
Fusobacterium nucleatum = assay: MIC on agar plates (RCBA); assay type: cell-based; conditions: for MIC: Fusobacterium nucleatum, read-out: MIC, F. nucleatum
Bifidobacterium spp. = assay: MIC on agar plates (RCBA); assay type: cell-based; conditions: RCBA agar plate, anaerobic, 72 hours at 30° C.; for MIC: Bifidobacterium, read-out: MIC, Bif. spp.
Listeria monocytogenes = assay: MIC on agar plates (TSA); conditions: for MIC, L. monocytogenes: TSA agar plate, aerobic, 48 hours at 30° C.; for MIC: Listeria monocytogenes, 48 h, read-out: MIC, L. monocytogenes
Enterococcus hirae = assay: MIC on agar plates (MRSA); conditions: for MIC, E. hirae: MRSA agar plate, anaerobic, 72 hours at 30° C.; for MIC: Enterococcus hirae, 72 h, read-out: MIC, E. hirae
[3] = tested on: Lactobacillus acidophilus; assay: MIC on agar plates (MRSA); conditions: for MIC, L. acidophilus: anaerobic, 72 hours at 30° C.; for MIC: Lactobacillus acidophilus, 72 h, read-out: MIC, L. acidophilus
Salmonella enteritidis = assay: MIC on agar plates (TSA); assay type: cell-based; conditions: TSA agar plate, aerobic, 48 hours at 30° C.; for MIC: Salmonella enterica, ENTERITIDIS, read-out: MIC, S. enteritidis
[4] = pig, in vivo
Method: (§1) Because the sphingolipids need to be transported together with the food to the small and large intestines to be able to be active there, the transport of phytosphingosine and sphinganine in the stomach and small intestine model TIM-1 was tested. Also, the transport of phytosphingosine in a fistulated pig was tested after the animal had been fed with feed containing phytosphingosine (1 wt. %). In a fistulated pig, the small intestine is uncoupled from the large intestine so that the digested feed at the end of the small intestine can be collected.
To investigate in an in vivo system whether sphingolipids from the food do actually arrive in the large intestine and are not prematurely absorbed or metabolized, pig basic feed to which phytosphingosine (1 wt. %) was added was fed to a fistulated pig.
The feed was prepared by mixing a solution of phytosphingosine in ethanol with the feed and drying it in vacuo. Every hour, the intestinal content (chymus) at the end of the small intestine was separately collected and frozen dry. The dry intestinal contents were then extracted with chloroform/methanol (2:1, v/v). The extracts were then filtered over glass wool and evaporated under a nitrogen flow. The residues were examined for the presence of phytosphingosine, sphingosine, sphinganine and sphingomyelin by means of LC-MS.

bacteria tested = assay: Antimicrobial activity on agar plates, summary for the bacteria tested; assay type: cell-based
[5] = tested on: Lactobacillus acidophilus; assay: Antimicrobial activity in small intestine model TIM-1; assay type: cell-based; conditions: 20 μg/ml of sphingolipid; lumen samples plated on Rogosa agar
Clostridium perfringens = assay: microbe, parasite or virus in culture; assay type: cell-based; conditions: 72 h, read-out: MIC, C. perfringens
Clostridium difficile [6] = assay: Survival in liquid ileum medium; assay type: cell-based; conditions: within 200 minutes
[7] = assay type: in vitro ADME
Method: as §1
To investigate whether sphingolipids from the food are transported through the small intestine without being absorbed or being chemically or enzymatically modified in the small intestine, phytosphingosine and sphinganine were mixed in a standard Tim-1 food and exposed to a TIM-1 treatment. Of each sphingolipid, 5 mg per 100 grams of food (0.005 wt. %) in the food were tested. After starting the TIM-1 digestion processes in the TIM-1 stomach, at the fixed times, lumen samples of 100 grams were taken. Also, dialysate samples were taken from the material which was transported through the semi-permeable TIM-1 membrane. The dialysate samples varied between 1428 and 1122 grams. […] Next to the samples, the exposure time in minutes is given.

Clostridium difficile [8] = assay: Antimicrobial activity in small intestine model TIM-1; assay type: cell-based; conditions: 20 μg/ml of sphingolipid; lumen samples plated on Clostridium difficile agar
[9] = tested on: Lactobacillus acidophilus; assay: Survival in liquid ileum medium; conditions: within 200 minutes
Clostridium difficile [10] = assay: MIC on agar plates (RCBA); assay type: cell-based; conditions: Clostridioides difficile; RCBA agar plate, anaerobic, 72 hours at 30° C.
[11] = RCBA agar plate, anaerobic, 72 hours at 30° C.
[12] = ileum medium, absence of bile, 10 and 50 μg/ml
[13] = 60 min, 5 mg per 100 grams of food
[14] = 120 min, 5 mg per 100 grams of food
[15] = 180 min, 5 mg per 100 grams of food
[16] = 240 min, 5 mg per 100 grams of food

With CCCCCCCCCCCCC/C=C/[C@@H](O)[C@@H](N)COP(=O)([O-])OCC[N+](C)(C)C [Lysosphingomyelin, lysosphingomyelin] the “MIC, S. suis type 2” value [1] was less than 3.1 µg/mL, the “MIC, L. sake” value (Lactobacillus sake) was 20 µg/mL (≈ 43 µM) and the “MIC, B. fragilis” value (Bacteroides fragilis) was 11.4 µg/mL (≈ 24.5 µM). The “MIC, C. spp.” value (Clostridium spp.; [11]) was less than 3.1 µg/mL, the “MIC, B. adolescentis” value [2] was less than 3.1 µg/mL and the “MIC, L. casei” value (Lactobacillus casei) was greater than 365 µg/mL. For the same compound, the “MIC, P. aeruginosa” value (Pseudomonas aeruginosa) was greater than 365 µg/mL, the “MIC, B. cereus” value (Bacillus cereus) was less than 3.1 µg/mL and the “MIC, L. carnosum” value (Leuconostoc carnosum) was less than 3.1 µg/mL. For the same compound, the “Antimicrobial activity against Gram-positive bacteria” value (Gram-positive bacteria; agar plates) was “killed; also recorded: strong antimicrobial activity”, the “MIC, F. nucleatum” value (Fusobacterium nucleatum; [11]) was greater than 365 µg/mL and the “MIC, Bif. spp.” value (Bifidobacterium spp.) was 10 µg/mL (≈ 21.5 µM). The “MIC, L. monocytogenes” value (Listeria monocytogenes) was less than 3.1 µg/mL, the “MIC, E. hirae” value (Enterococcus hirae) was greater than 365 µg/mL and the “MIC, L. acidophilus” value [3] was 16.6 µg/mL (≈ 35.7 µM). For the same compound, the “MIC, S. enteritidis” value (Salmonella enteritidis) was greater than 365 µg/mL.

In the case of CCCCCCCCCCCCC/C=C/[C@@H](O)[C@@H](N)CO [Sphingosine, sphingosine], the MIC [1] is reported as less than 6.3 µg/mL, the MIC (Lactobacillus sake) is reported as less than 6.3 µg/mL and the MIC (Bacteroides fragilis) is reported as less than 6.3 µg/mL. For the same compound, the “Presence in the intestinal contents at the end of the small intestine” value [4] was “No sphingosine could be demonstrated”, the MIC (Clostridium spp.) was less than 6.3 µg/mL and the MIC [2] was less than 6.3 µg/mL. It also gave an MIC (Lactobacillus casei) of less than 6.3 µg/mL, an MIC (Pseudomonas aeruginosa) greater than 731 µg/mL and an MIC (Bacillus cereus) of less than 6.3 µg/mL. For the same compound, the MIC (Leuconostoc carnosum) was less than 6.3 µg/mL, the “Antimicrobial activity against Gram-positive bacteria” value (Gram-positive bacteria) was “killed; also recorded: strong antimicrobial activity” and the MIC (Fusobacterium nucleatum; [11]) was less than 6.3 µg/mL. It also gave an MIC (Bifidobacterium spp.) of less than 6.3 µg/mL, an MIC (Listeria monocytogenes) of less than 6.3 µg/mL and an MIC (Enterococcus hirae) of 84 µg/mL (≈ 280 µM). The MIC [3] was less than 6.3 µg/mL and the MIC (Salmonella enteritidis) was greater than 731 µg/mL.

With glucosylceramide III the “MIC, S. suis type 2” value [1] was greater than 365 µg/mL, the “MIC, L. sake” value (Lactobacillus sake) was greater than 365 µg/mL and the “MIC, B. fragilis” value (Bacteroides fragilis) was greater than 365 µg/mL. For the same compound, the “MIC, C. spp.” value (Clostridium spp.) was greater than 365 µg/mL, the “MIC, B. adolescentis” value [2] was greater than 365 µg/mL and the “MIC, L. casei” value (Lactobacillus casei) was greater than 365 µg/mL. The “MIC, P. aeruginosa” value (Pseudomonas aeruginosa) was greater than 365 µg/mL, the “MIC, B. cereus” value (Bacillus cereus) was greater than 365 µg/mL and the “MIC, L. carnosum” value (Leuconostoc carnosum) was greater than 365 µg/mL. For the same compound, the “MIC, F. nucleatum” value (Fusobacterium nucleatum; [11]) was greater than 365 µg/mL, the “MIC, Bif. spp.” value (Bifidobacterium spp.) was greater than 365 µg/mL and the “MIC, L. monocytogenes” value (Listeria monocytogenes) was greater than 365 µg/mL. The “MIC, E. hirae” value (Enterococcus hirae) was greater than 365 µg/mL, the “Inhibition of the bacteria tested” value (bacteria tested) was “do not inhibit any of the bacteria tested” and the “MIC, L. acidophilus” value [3] was greater than 365 µg/mL. For the same compound, the “MIC, S. enteritidis” value (Salmonella enteritidis) was greater than 365 µg/mL.

For CC(=O)O.CCCCCCCCCCCCCCC[C@@H](O)[C@@H](N)CO [Sphinganine, sphinganine acetate], the MIC [1] was less than 6.3 µg/mL, the “Antimicrobial activity against Lactobacillus acidophilus in TIM-1” value [5] was “no demonstrable antimicrobial activity” and the MIC (Lactobacillus sake) was greater than 70 µg/mL. For the same compound, the MIC (Clostridium perfringens) was greater than 36.5 µg/mL, the MIC (Bacteroides fragilis) was 0.3 µg/mL and the “Presence in the intestinal contents at the end of the small intestine” value [4] was “small amounts”. The “Killing of Clostridium difficile” value (Clostridium difficile [6]; [12]) was “virtually completely killed”, the “Killing of Clostridium difficile” value (Clostridium difficile [6]; liquid cultures, 50 ppm) was “for the larger part killed” and the MIC (Clostridium spp.) was greater than 73 µg/mL. The “Transport through the TIM-1 system” value [7] was “transported to the large intestine to a sufficient extent”, the “Concentration in TIM-1 sample: Dialysate ileum 0-120′” value ([7]; 5 mg per 100 grams of food) was 0 ng/mL and the “Concentration in TIM-1 sample: Dialysate ileum 120-240′” value ([7]; 5 mg per 100 grams of food) was 0 ng/mL. For the same compound, the “Concentration in TIM-1 sample: Dialysate jejunum 0-120′” value ([7]; 5 mg per 100 grams of food) was 0 ng/mL, the “Concentration in TIM-1 sample: Dialysate jejunum 120-240′” value ([7]; 5 mg per 100 grams of food) was 0 ng/mL and the “Concentration in TIM-1 sample: Food” value ([7]; 5 mg per 100 grams of food) was 19360 ng/mL. The “Concentration in TIM-1 sample: Residue jejunum/ileum + dialysis fluid” value ([7]; 5 mg per 100 grams of food) was 8620 ng/mL, the “Concentration in TIM-1 sample: Residue stomach/duodenum + dialysis fluid” value ([7]; 5 mg per 100 grams of food) was 2730 ng/mL and the “Share of the amount used found in the samples (rough mass balance)” value ([7]; 5 mg per 100 grams of food) was “approx. 20%”. For the same compound, the “Concentration in TIM-1 sample: Lumen ileum 60′” value [7, 13] was 740 ng/mL, the “Concentration in TIM-1 sample: Lumen jejunum 60′” value [7, 13] was 8750 ng/mL and the “Concentration in TIM-1 sample: Lumen ileum 120′” value [7, 14] was 4520 ng/mL. For the same compound, the “Concentration in TIM-1 sample: Lumen jejunum 120′” value [7, 14] was 11510 ng/mL, the “Concentration in TIM-1 sample: Lumen ileum 180′” value [7, 15] was 5300 ng/mL and the “Concentration in TIM-1 sample: Lumen jejunum 180′” value [7, 15] was 12470 ng/mL. For the same compound, the “Concentration in TIM-1 sample: Lumen ileum 240′” value [7, 16] was 7910 ng/mL, the “Concentration in TIM-1 sample: Lumen jejunum 240′” value [7, 16] was 10460 ng/mL and the MIC [2] was greater than 73 µg/mL. For the same compound, the “Antimicrobial activity against Clostridium difficile in TIM-1” value (Clostridium difficile [8]) was “no demonstrable antimicrobial activity”, the MIC (Lactobacillus casei) was 246 µg/mL and the MIC (Pseudomonas aeruginosa) was greater than 731 µg/mL. The MIC (Bacillus cereus) was less than 6.3 µg/mL, the MIC (Leuconostoc carnosum) was less than 0.3 µg/mL and the “Antimicrobial activity against Gram-positive bacteria” value (Gram-positive bacteria; agar plates, acetate) was “killed; also recorded: strong antimicrobial activity”. For the same compound, the “Killing of Lactobacillus acidophilus” value [9, 12] was “virtually completely killed”, the “Killing of Lactobacillus acidophilus” value ([9]; liquid cultures, 50 ppm) was “for the larger part killed” and the MIC (Fusobacterium nucleatum; 72 h) was greater than 731 µg/mL. For the same compound, the MIC (Bifidobacterium spp.) was 0.9 µg/mL, the MIC (Listeria monocytogenes) was less than 6.3 µg/mL and the MIC (Enterococcus hirae) was greater than 731 µg/mL. The MIC (Clostridium difficile [10]) was greater than 73 µg/mL, the MIC [3] was 222 µg/mL and the MIC (Salmonella enteritidis) was greater than 731 µg/mL.
